Experimental data from US11130766B2, “Deuterated thienopiperidine derivatives, manufacturing method, and application thereof” (JIANGSU TASLY DIYI PHARMACEUTICAL CO., LTD., priority 2015, dated 2021).
Read-outs that look alike come from different tables or passages of the source. Marks after values point to notes of the source that are not given here.

Legend:
[1] = test system: ADP induced platelet aggregation; test: ADP induced platelet aggregation, maximum aggregation rate after administration to rats; format: in vivo, Wistar male rats; conditions: ADP induced, rats, 3 mg/kg, blood drawn 2 hours after administration
Method: Addition of small dose of ADP (concentration less than 0.9 μmol/L) into the platelet suspension could lead to rapid platelet aggregation, followed by quick disaggregation; if moderate dose of ADP (about 1.0 μmol/L) was added, then the second irreversible aggregation phase appeared not long after the end of the first aggregation phase and the disaggregation. The maximum aggregation rate of the irreversible aggregation phase was used to evaluate the effect of the test samples on the function of blood coagulation.
Animals: Wistar male rats, weighing 230-250 g, were purchased from Vital River Laboratory Animal Technology Co., Ltd.
Reagent: ADP, Sigma Corporation.
Test samples: 16 test samples were provided by the Tasly Group; referred to China patent application 201310428052.4 for manufacturing method of TSC-1˜4 and TSC-6˜9.
Dose of administration: the test samples were suspended with 0.25% CMC, administered 3 mg/kg weight, volume of administration: 2 mL.
2 Hours after administration, the rats were anesthetized with pentobarbital sodium, and blood was drawn from the abdominal aorta, anticoagulated with sodium citrate with a ratio of 1:9, and centrifuged to obtain the platelet-rich plasma and platelet-poor plasma, with the mixed ratio of the platelet-poor plasma to platelet-rich plasma=3:1.

esterase [2] = test: Esterase hydrolysis rates of TSD-8 and clopidogrel bisulfate, in vitro incubation in rat whole blood; format: in vitro ADME; set-up: sample test results (concentration) Num. 1 / sample test results (concentration) Num. 2 / sample test results (concentration) Num. 3 / sample test results (concentration) Mean: unit not given here; conditions: rat whole blood, 37° C., 30 μg/mL
esterase [3] = conditions: rat whole blood, 37° C., 30 μg/mL
Method: The hydrolysis rates of formula TSD-6 and clopidogrel bisulfate in the rat whole blood were determined by employing the in vitro incubation method.
3 mL of the rat fresh whole blood was taken and placed in a glass test tube. 30 μg/mL of formula TSD-6 and clopidogrel bisulfate (prepared with saline) were added, with 3 parallel tests for each group. The test tubes were shocked at a constant temperature of 37° C., 100 μL of the mixture was taken out at fixed time points of 10 min, 20 min, 30 min, 40 min, 50 min, 60 min, 70 min, 80 min, 90 min, 100 min, 110 min, and 120 min, into which 900 μL of methanol was added to stop the reaction immediately, then 100 μL methanol/water (1:1, v/v) and 100 μL internal standard (diazepam, 100 ng/mL) were added sequentially. The mixture was centrifuged at 13000 rpm at low temperature for 10 min, the supernatant was transferred into another EP tube, and 20 μL of the supernatant was taken for sample injection.

Rat Tail Bleeding Model = conditions: SD rat, 10 mg/kg oral gavage, 4 h after administration
Method: genus, strain SD rat, • Provider: Slac • Weight: 250-350 g • Sex: male • Animal number: 30
Experimental Method: • The animals were allowed adapt to the environment after arrival for 1 week and fasted for 16 hours prior to the experiment. • The tail bleeding time started to be recorded 2 h after oral administration of the test compounds and 4 h after oral administration of clopidogrel. • The rats were anesthetized with pentobarbital sodium (50 mg/kg, ip) 10 min prior to the recording of the tail bleeding time, after the rat was completely anesthetized and reaching the detection time, the tail was cut at 1.3 mm from the rat tail-tip with a scissor and perpendicularly immerged into a saline at 37° C. Timing recording was not started until the blood flow appeared. • The timing recording was stopped when the bleeding time interval was longer than 20 seconds. The maximum observation time for the blood flow was set for 40 minutes. If it was longer than 40 minutes, the timing recording was stopped and the time was recorded as 40 minutes.

[4] = test system: Rat Arteriovenous Thrombus Loop Model; conditions: SD rat, 10 mg/kg oral gavage, 4 h after administration, 15 min circulation
Excerpt: genus, strain: SD rat, • Provider: Slac • Weight: 250-350 g • Sex: male • Animal number: 30
Apparatus and Materials • Swab, dry tampon, alcohol pad, anerdian tampon. • Surgical scissor, ophthalmic forceps, hemostatic forceps, microsurgical scissor, microsurgical forceps, artery clamps. • 3-0 surgical suture, thick PE tube (I.D.*O.D.=1.14 mm*1.63 mm, 8 cm long), think PE tube (I.D.*O.D.=0.72 mm*1.22 mm, 6 cm long). • Surgical board, binding rope, timer, precise electronic balance, weighing paper. • Syringe, normal saline.
7. Experimental Method • After arrival, the animals were let adapt to the environment for 1 week and fasted for 16 hours prior to the test. • The arteriovenous blood loop circulation was started 2 h after oral administration of the test compounds and 4 h after oral administration of clopidogrel. • The rats were anesthetized with pentobarbital sodium (50 mg/kg, ip) 15 min before the arteriovenous blood loop circulation was started. • The left external jugular vein and the right carotid artery were separated and inserted with thin PE tubes respectively. • Two PE tubes were connected with another thick PE tube with a length of 8 cm to form a circulation passage. There's a 6 cm surgical suture (3-0) in the thick PE tube. • 15 min after the circulation passage was opened, the blood flow was blocked, the filament was taken out and weighed after the blood was sucked out. The thrombus weight was obtained after subtraction of the weight of the filament itself.

time at which the concentration in the whole blood was lower than the quantitative lower limit (esterase [2]): around 50 min
sample test results (concentration) Mean (esterase [2]; 10 min): 199.50
sample test results (concentration) Num. 1 (esterase [2]; 10 min): 232
sample test results (concentration) Num. 3 (esterase [2]; 10 min): 167
sample test results (concentration) Mean (esterase [2]; 20 min): 90.53
sample test results (concentration) Num. 1 (esterase [2]; 20 min): 64.1
sample test results (concentration) Num. 2 (esterase [2]; 20 min): 131
sample test results (concentration) Num. 3 (esterase [2]; 20 min): 76.5
sample test results (concentration) Mean (esterase [2]; 30 min): 34.07
sample test results (concentration) Num. 1 (esterase [2]; 30 min): 20.6
sample test results (concentration) Num. 2 (esterase [2]; 30 min): 53
sample test results (concentration) Num. 3 (esterase [2]; 30 min): 28.6
sample test results (concentration) Mean (esterase [2]; 40 min): 11.82
sample test results (concentration) Num. 1 (esterase [2]; 40 min): 6.46
sample test results (concentration) Num. 2 (esterase [2]; 40 min): 14.3
sample test results (concentration) Num. 3 (esterase [2]; 40 min): 14.7
sample test results (concentration) Mean (esterase [2]; 50 min): 0.62
sample test results (concentration) Num. 1 (esterase [2]; 50 min): 0.479
sample test results (concentration) Num. 2 (esterase [2]; 50 min): 1.01
sample test results (concentration) Num. 3 (esterase [2]; 50 min): 0.359
sample test results (concentration) Mean (esterase [2]; 60 min): 0.53
sample test results (concentration) Num. 1 (esterase [2]; 60 min): 0.347
sample test results (concentration) Num. 2 (esterase [2]; 60 min): 1.24
sample test results (concentration) Num. 3 (esterase [2]; 60 min): 0
sample test results (concentration) Mean (esterase [2]; 90 min): 0.00
sample test results (concentration) Num. 1 (esterase [2]; 90 min): 0
sample test results (concentration) Num. 2 (esterase [2]; 90 min): 0
sample test results (concentration) Num. 3 (esterase [2]; 90 min): 0
sample test results (concentration) Mean (esterase [2]; 100 min): 0.00
sample test results (concentration) Num. 1 (esterase [2]; 100 min): 0
sample test results (concentration) Num. 2 (esterase [2]; 100 min): 0
sample test results (concentration) Num. 3 (esterase [2]; 100 min): 0
sample test results (concentration) Mean (esterase [2]; 110 min): 0.00
sample test results (concentration) Num. 1 (esterase [2]; 110 min): 0
sample test results (concentration) Num. 2 (esterase [2]; 110 min): 0
sample test results (concentration) Num. 3 (esterase [2]; 110 min): 0
sample test results (concentration) Mean (esterase [2]; 120 min): 0.00
sample test results (concentration) Num. 1 (esterase [2]; 120 min): 0
sample test results (concentration) Num. 2 (esterase [2]; 120 min): 0
sample test results (concentration) Num. 3 (esterase [2]; 120 min): 0
time at which the concentration in the whole blood was lower than the quantitative lower limit (esterase [3]): around 50 min
sample test results (concentration) Mean (esterase [3]; 10 min): 211.0
sample test results (concentration) Num. 1 (esterase [3]; 10 min): 238
sample test results (concentration) Num. 2 (esterase [3]; 10 min): 221
sample test results (concentration) Num. 3 (esterase [3]; 10 min): 174
sample test results (concentration) Mean (esterase [3]; 20 min): 89.6
sample test results (concentration) Num. 1 (esterase [3]; 20 min): 66.2
sample test results (concentration) Num. 2 (esterase [3]; 20 min): 128
sample test results (concentration) Num. 3 (esterase [3]; 20 min): 74.7
sample test results (concentration) Mean (esterase [3]; 30 min): 35.1
sample test results (concentration) Num. 1 (esterase [3]; 30 min): 24.1
sample test results (concentration) Num. 2 (esterase [3]; 30 min): 57.2
sample test results (concentration) Num. 3 (esterase [3]; 30 min): 24.1
sample test results (concentration) Mean (esterase [3]; 40 min): 11.2
sample test results (concentration) Num. 1 (esterase [3]; 40 min): 6.27
sample test results (concentration) Num. 2 (esterase [3]; 40 min): 15.1
sample test results (concentration) Num. 3 (esterase [3]; 40 min): 19.3
sample test results (concentration) Mean (esterase [3]; 50 min): 0.70
sample test results (concentration) Num. 1 (esterase [3]; 50 min): 0.449
sample test results (concentration) Num. 2 (esterase [3]; 50 min): 1.12
sample test results (concentration) Num. 3 (esterase [3]; 50 min): 0.518
sample test results (concentration) Mean (esterase [3]; 60 min): 0.62
sample test results (concentration) Num. 1 (esterase [3]; 60 min): 0.417
sample test results (concentration) Num. 2 (esterase [3]; 60 min): 1.45
sample test results (concentration) Num. 3 (esterase [3]; 60 min): 0
sample test results (concentration) Mean (esterase [3]; 90 min): 0
sample test results (concentration) Num. 1 (esterase [3]; 90 min): 0
sample test results (concentration) Num. 2 (esterase [3]; 90 min): 0
sample test results (concentration) Num. 3 (esterase [3]; 90 min): 0
sample test results (concentration) Mean (esterase [3]; 100 min): 0
sample test results (concentration) Num. 1 (esterase [3]; 100 min): 0
sample test results (concentration) Num. 2 (esterase [3]; 100 min): 0
sample test results (concentration) Num. 3 (esterase [3]; 100 min): 0
sample test results (concentration) Mean (esterase [3]; 110 min): 0
sample test results (concentration) Num. 1 (esterase [3]; 110 min): 0
sample test results (concentration) Num. 2 (esterase [3]; 110 min): 0
sample test results (concentration) Num. 3 (esterase [3]; 110 min): 0
sample test results (concentration) Mean (esterase [3]; 120 min): 0
sample test results (concentration) Num. 1 (esterase [3]; 120 min): 0
sample test results (concentration) Num. 2 (esterase [3]; 120 min): 0
sample test results (concentration) Num. 3 (esterase [3]; 120 min): 0
SMILES: COC(=O)[C@H](c1ccccc1Cl)N1CCc2sccc2C1 [clopidogrel, Clopidogrel, reference compound]
Maximum Platelet Aggregation Rate [1]: 46.77 ± 8.28
Tail Bleeding Time (s) (Rat Tail Bleeding Model): 1896*** s
Thrombus (mg) [4]: 20.1** mg
